We go through four molecules from patent US10092620B2, “Uses of cyclic peptides for treating and preventing atherosclerosis” (THE SCRIPPS RESEARCH INSTITUTE, priority 2013, dated 2018).

Non-standard residues stand in square brackets, D forms with d. Residues, ends and D or L forms follow the SMILES beside them. dNMeW = CN[C@H](Cc1c[nH]c2ccccc12)C(=O)O; dNMeS = CN[C@H](CO)C(=O)O; Orn = NCCC[C@H](N)C(=O)O

Data set [1] deals with mouse macrophage J774 cells. Kind of data set: cholesterol efflux from mouse macrophage cells incubated with peptide-treated human plasma. It is filed as cell-based. Conditions: for promotion of cellular cholesterol efflux (in words): J774 cells, 2% apoB-depleted peptide-treated human plasma, 4 h, FIG. 2b. The method, then:
Selected cyclic D,L-α-peptides were further evaluated for their ability to promote cellular cholesterol efflux from mouse macrophage J774 cells. A main factor for HDL anti-atherogenicity is its role in reverse cholesterol transport, of which cellular cholesterol efflux is a critical component. To measure efflux mediated by the cyclic D,L-α-peptides, cholesterol-laden cells were incubated with peptide-treated plasma for 4 h, after which the level of cholesterol effluxed to the media was measured as described in Sankaranarayanan et al., J. Lipid Res. 52, 2332-2340, 2011.
Preparation of labeling medium: These procedures were modified from that reported in Sankaranarayanan et al., J. Lipid Res. 52, 2332-2340, 2011. The labeling medium was prepared by complexing the unlabeled cholesterol and BODIPY-cholesterol (20% of the total cholesterol) with methyl-β-cyclodextrin (CD) at a molar ratio of 1:40 (total cholesterol/CD). Unlabeled cholesterol and BODIPY-cholesterol were dissolved in chloroform and dried in a round bottom flask by rotor-evaporation in the dark to form a thin film. The cholesterol mixture was solubilized by adding 20 mM CD in MEM-HEPES buffer. The suspension was sonicated in a water bath (37° C.) for at 1 h, stirred at 37° C. for 3 h, filtered using a 0.45-μm syringe filter, and diluted with an equal volume of MEM-HEPES buffer containing 4 μg/mL Sandoz ACAT (acyl-CoA:cholesterol acyltransferase) inhibitor (Sigma). The final concentrations of BODIPY-cholesterol, unlabeled cholesterol, CD, and ACAT inhibitor in the labeling medium were 0.025 mM, 0.1 mM, 10 mM, and […], respectively.
Preparation of efflux medium: Just before the initiation of the efflux assays, the human plasma frozen at −80° C. was thawed, and 80 μL of plasma was incubated with 20 μL of cyclic peptide stocks (peptide stocks were 1-3 mg/mL in 10% sucrose) or the vehicle (10% sucrose) at 37° C. for 30 min. The treated plasma samples (100 μL) were then incubated with 25% PEG 8000 solution in 200 mM glycine buffer, pH 8.5 (40 μL) to precipitate apoB-containing lipoproteins (Asztalos et al., J. Lipid Res. 46, 2246-2253, 2005). After a 15-min incubation, the precipitate was removed by high-speed centrifugation (13,000 rpm, 10 min, 4° C.), and the supernatant (60 μL) was immediately diluted with MEM-HEPES buffer (1.5 mL) to give ˜2% whole plasma. This solution, containing the peptide remodeled-HDL lipoprotein fraction as cholesterol acceptors, was used as the efflux medium.
Cholesterol efflux from mouse macrophage cells: Mouse macrophage J774A.1 cells (TIB-67; American Type Culture Collection, Manassas, Va.) were seeded in 12-well culture plate at 3×10^5 cells/mL and cultured to 80-90% confluency in DMEM with 10% FBS at 5% CO2. Cells were rinsed twice with MEM-HEPES, incubated for 1 h with 0.25 ml of labeling medium containing CD/BODIPY-cholesterol/unlabeled cholesterol and 2 μg/mL Sandoz ACAT inhibitor, followed by washing twice with MEM-HEPES. The cholesterol-laden cells were equilibrated for 18 h in DMEM containing 5% LPDS, […] Sandoz ACAT inhibitor, and 0.3 mM Cpt-cAMP. After equilibration, the cells were washed twice with MEM-HEPES and incubated with 0.25 mL of efflux media for 4 h. At the end of the incubation time, the efflux media was removed and centrifuged (1200 rpm, 10 min) to remove floating cells, and the fluorescence intensity of 100 μL cell-free media was recorded using a Tecan GENios plate reader (excitation 485 nm, emission 535 nm). The obtained signals were background subtracted using the signal from unlabeled cells. The cell monolayers were rinsed twice with ice-cold MEM-HEPES and solubilized with 0.25 mL 1% cholic acid by shaking on a plate shaker for at least 4 h at room temperature; then the fluorescence intensity of 100 μL cell lysate was recorded and background subtracted using the signal from unlabeled cell lysate. […]

Data set [2] deals with HDL in human plasma. As to the kind of experiment: pre-beta HDL ELISA assay: remodeling HDL in human plasma in vitro. Format: biochemical. The conditions noted are these: pre-beta HDL ELISA. On the procedure:
First, various cyclic peptides, including the majority of compounds shown in FIG. 2, were assessed for activities for remodeling HDL in human plasma in vitro. Unlike western blot which was used to generate data shown in FIG. 2, here a pre-beta HDL ELISA assay was used to measure pre-beta HDL levels. Results from the assay are shown in Table 1, which lists the peptides in the order of their activities in remodeling HDL.

Data set [3] concerns human plasma HDL. As to the kind of experiment: human plasma HDL remodeling (NDGGE, immunoblot for human apoA-I). Format: biochemical. The conditions noted are these: human plasma in vitro; Western blot for apoA-I; FIGS. 1 and 2a. The source says:
As an initial phase of investigation, we evaluated in vitro the effectiveness of our cyclic D,L-α-peptides to remodel mature human plasma HDLs into lipid-poor HDL (FIG. 1 and FIG. 2a). Lipid-poor HDL particles are key acceptors of cholesterol in reverse cholesterol transport and are thus crucial for combating atherosclerosis. In fact, with respect to the cholesterol efflux capacity of human sera, the levels of lipid-poor HDL correlate much better than the levels of HDL-cholesterol or apoA-I. Briefly, our assay involved incubating human plasma with a peptide, after which the plasma sample was subjected to non-denaturing gradient gel electrophoresis (NDGGE) to separate the HDL subspecies and then immunoblotted for human apoA-I. The ranked activities of the cyclic D,L-α-peptides in promoting formation of lipid-poor HDL are shown in FIG. 1. It should be noted that there are inherent variabilities associated with electrophoretic transfer, staining, and densitometric quantitation, so the peptide ranking should be viewed as an approximate guide to relative plasma HDL remodeling efficacy. Nevertheless, the rankings were similar overall whether the panel was assayed by using peptide stock solutions prepared in 10% sucrose/H2O (FIGS. 1 and 2a) or peptide stock solutions prepared in 1:1 DMSO/H2O. From these preliminary structure-activity relationship (SAR) studies, we identified a pronounced sequence dependence for efficient plasma HDL remodeling (vide infra).
Human plasma remodeling: All procedures involving human samples were approved by TSRI Institutional Review Board. Procedures were modified from those reported in Troutt et al., J. Lipid Res. 49, 581-587, 2008. Blood samples from normal healthy human donors were obtained from TSRI Normal Blood Donor Program. EDTA-anticoagulated whole blood was centrifuged at 1500×g for 15 min within 1 h of being drawn from the donor. The plasma layer was aliquoted and used immediately or frozen at −80° C. for future use. Peptide stock solutions were prepared at ˜15 mM peptide in 50% DMSO for initial screenings, or at ˜2 mM peptide in 10% sucrose for remodeling assays at lower concentrations (FIG. 1) and cholesterol efflux assays (FIG. 2). Plasma samples (30 μL) were treated with peptide stocks, and the samples were incubated at 37° C. for 0.5-1 h, and then quenched by adding 270 μL of 50% sucrose (1:9 dilution). Samples were mixed with 6× native loading buffer (125 mM tris, pH 6.8, 0.02% bromophenol, 20% glycerol), of which 6 μL was loaded onto a 4-20% polyacrylamide gel. The molecular weight ladder used was High Molecular Weight Calibration Kit (Amersham Biosciences, #17-0445-01). […] The films were scanned and quantified by densitometry using the program LabWorks (v. 4.0.0.8). […]
On the technique in general: In western blotting, separated proteins are transferred to a membrane and probed.

`CC(C)C[C@@H]1NC(=O)[C@@H](Cc2c[nH]c3ccccc23)NC(=O)[C@H](CCCN)NC(=O)[C@@H](CO)NC(=O)[C@H](CCC(N)=O)NC(=O)[C@@H](CCC(=O)O)NC(=O)[C@H](CO)NC(=O)[C@@H](Cc2c[nH]c3ccccc23)NC1=O` [SEQ ID NO:4, c[wLwSeQsO]] (cyclo([dW]L[dW]S[dE]Q[dS][Orn])): in data set [1] (J774 cells in the efflux assay), the “toxicity based on the cellular morphology and density” value was “did not appear to be toxic”. The “promotion of cellular cholesterol efflux (in words)” value (shortened to “promotion”) in data set [1] was “only marginally less effective than the α-helical apoA-I mimetic 4F”. The “Pre-beta HDL generated (normalized level)” value in data set [2] is recorded as 0.59.
Regarding “Ac-wLwSeQsO-NH2 (Ac-[dW]L[dW]S[dE]Q[dS][Orn]-NH2) [SEQ ID NO:45, acetylated linear peptide]”, the “promotion” value in data set [1] was “failed to remodel plasma HDL or promote cholesterol efflux”. The “plasma HDL remodeling to lipid-poor HDL (in words)” value (“plasma HDL remodeling” below) in data set [3] is “failed to remodel plasma HDL”.
In the case of “c[wL^MewSeQ^MesO] (cyclo([dW]L[dNMeW]S[dE]Q[dNMeS][Orn])) [SEQ ID NO:14]”, the “promotion” value in data set [1] was “greatly diminished compared to the unmethylated parent, compound 4”. Further, the “plasma HDL remodeling” value in data set [3] is “greatly diminished compared to the unmethylated parent, compound 4”.
In the case of “c[wLwErQrE] (cyclo([dW]L[dW]E[dR]Q[dR]E); SMILES CC(C)C[C@@H]1NC(=O)[C@@H](Cc2c[nH]c3ccccc23)NC(=O)[C@H](CCC(=O)O)NC(=O)[C@@H](CCCNC(=N)N)NC(=O)[C@H](CCC(N)=O)NC(=O)[C@@H](CCCNC(=N)N)NC(=O)[C@H](CCC(=O)O)NC(=O)[C@@H](Cc2c[nH]c3ccccc23)NC1=O) [SEQ ID NO:37]”, in data set [1], the “promotion” value was “dramatically reduced compared to that of compound 1”. For the same molecule, in data set [3], the “plasma HDL remodeling” value is given as “dramatically reduced compared to that of compound 1”.
